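1) Cells in 96-well plates. 2) Compound, 48 h, 5 concentrations. 3) Linear interpolation between surrounding doses. 4) Unreached endpoint = highest concentration. Abbreviation: GI50, concentration required for 50% inhibition of growth. Definition used: TGI = concentration required for complete inhibition of growth.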
Key:
Assay in all cases: NCI anticancer screen, dose series, 48 h; in the data active means GI50 below about 0.43 µM; inactive means the rest
[1] = system: MCF7 breast
[2] = system: CAKI-1 renal
[3] = system: 786-0 renal
[4] = system: HT29 colon
[5] = system: DU-145 prostate
[6] = system: MOLT-4 leukemia
[7] = system: HCC-2998 colon
[8] = system: UACC-257 melanoma
[9] = system: KM12 colon
[10] = system: HCT-116 colon
[11] = system: PC-3 prostate
[12] = system: HOP-62 NSCLC
[13] = system: NCI-H23 lung
[14] = system: NCI-H460 lung
[15] = system: SK-MEL-2 melanoma
[16] = system: UACC-62 melanoma
[17] = system: MDA-MB-435
[18] = system: OVCAR-5 ovarian
[19] = system: RXF 393 renal
[20] = system: MALME-3M melanoma
[21] = system: HS 578T breast
[22] = system: OVCAR-8 ovarian
[23] = system: RPMI-8226 leukemia
[24] = system: SNB-19 CNS
[25] = system: NCI-H522 lung
[26] = system: EKVX NSCLC
[27] = system: SK-MEL-5 melanoma
[28] = system: A498 renal
[29] = system: MDA-N
[30] = system: IGROV1 ovarian
[31] = system: HOP-92 NSCLC
[32] = system: HCT-15 colon
[33] = system: SF-539 CNS
[34] = system: TK-10 renal
[35] = system: MDA-MB-231 breast
[36] = system: HL-60(TB) leukemia
[37] = system: LOX IMVI melanoma
[38] = system: M14 melanoma
[39] = system: OVCAR-4 ovarian
[40] = system: SF-268 CNS
[41] = system: SW-620 colon
[42] = system: COLO 205 colon
[43] = system: SK-OV-3 ovarian
[44] = system: SF-295 CNS
[45] = system: K-562 leukemia
[46] = system: T-47D breast
[47] = system: SN12C renal
[48] = system: U251 CNS
[49] = system: NCI/ADR-RES ovarian
[50] = system: BT-549 breast
[51] = system: ACHN renal
[52] = system: A549 NSCLC
[53] = system: SK-MEL-28 melanoma
[54] = system: NCI-H226 lung
[55] = system: CCRF-CEM leukemia
[56] = system: OVCAR-3 ovarian
[57] = system: UO-31 renal
[58] = system: SR leukemia
[59] = system: SNB-75 CNS

C=CCCCCOC1C=CC(O)C(CO)O1 (configuration not stated)
> 100 µM: TGI [1] | TGI [2] | TGI [3] | TGI [4] | TGI [5] | TGI [6] | TGI [7] | TGI [8] | TGI [9] | TGI [10] | TGI [11] | TGI [12] | TGI [13] | TGI [14] | TGI [15] | TGI [16] | TGI [17] | TGI [18] | TGI [19] | TGI [20] | TGI [21] | TGI [22] | TGI [23] | TGI [24] | TGI [25] | TGI [26] | TGI [27] | TGI [28] | TGI [29] | TGI [30] | TGI [31] | TGI [32] | TGI [33] | TGI [34] | TGI [35] | TGI [36] | TGI [37] | TGI [38] | TGI [39] | TGI [40] | TGI [41] | TGI [42] | TGI [43] | TGI [44] | TGI [45] | TGI [46] | TGI [47] | TGI [48] | TGI [49] | TGI [50] | TGI [51] | TGI [52] | TGI [53] | TGI [54] | TGI [55] | TGI [56] | TGI [57]

NC(=Nc1cccc(Cl)c1)c1ccccc1N
> 100 µM: TGI [1] | TGI [2] | TGI [3] | TGI [4] | TGI [5] | TGI [6] | TGI [7] | TGI [58] | TGI [8] | TGI [9] | TGI [10] | TGI [11] | TGI [12] | TGI [13] | TGI [14] | TGI [16] | TGI [17] | TGI [18] | TGI [19] | TGI [20] | TGI [21] | TGI [22] | TGI [23] | TGI [24] | TGI [25] | TGI [26] | TGI [27] | TGI [28] | TGI [29] | TGI [30] | TGI [32] | TGI [34] | TGI [35] | TGI [36] | TGI [37] | TGI [38] | TGI [39] | TGI [40] | TGI [41] | TGI [42] | TGI [43] | TGI [44] | TGI [59] | TGI [45] | TGI [48] | TGI [49] | TGI [50] | TGI [51] | TGI [52] | TGI [53] | TGI [54] | TGI [56] | TGI [57]

N#CN1CC[C@H](C(=O)Nc2cc3cc(C(N)=O)ccc3cn2)C1
24.3 µM: TGI [40]
> 46.3 µM: TGI [22]
5.08 µM: TGI [54]
0.512 µM: TGI [59]
1.16 µM: TGI [4]
6.87 µM: TGI [26]
10.8 µM: TGI [7]
0.206 µM: TGI [56]
0.23 µM: TGI [50]
3.52 µM: TGI [21]
2.44 µM: TGI [34]
1.46 µM: TGI [23]
active: GI50 [1] 0.0214 µM | GI50 [3] 0.222 µM | GI50 [4] 0.144 µM | GI50 [5] 0.357 µM | GI50 [6] 0.0488 µM | GI50 [7] 0.144 µM | GI50 [58] 0.0347 µM | GI50 [8] 0.22 µM | GI50 [9] 0.0566 µM | GI50 [10] 0.104 µM | GI50 [11] 0.257 µM | GI50 [12] 0.172 µM | GI50 [13] 0.13 µM | GI50 [14] 0.188 µM | GI50 [15] 0.0266 µM | GI50 [16] 0.0587 µM | GI50 [17] 0.045 µM | GI50 [19] 0.0426 µM | GI50 [20] 0.0239 µM | GI50 [21] 0.0534 µM | GI50 [22] 0.0993 µM | GI50 [23] 0.272 µM | GI50 [24] 0.144 µM | GI50 [25] 0.0695 µM | GI50 [26] 0.258 µM | GI50 [27] 0.105 µM | GI50 [28] 0.0765 µM | GI50 [30] 0.387 µM | GI50 [31] 0.0692 µM | GI50 [32] 0.302 µM | GI50 [33] 0.0589 µM | GI50 [34] 0.232 µM | GI50 [35] 0.0995 µM | GI50 [36] 0.109 µM | GI50 [37] 0.117 µM | GI50 [38] 0.0694 µM | GI50 [39] 0.041 µM | GI50 [40] 0.0732 µM | GI50 [41] 0.0969 µM | GI50 [42] 0.0855 µM | GI50 [43] 0.37 µM | GI50 [44] 0.392 µM | GI50 [59] 0.0649 µM | GI50 [45] 0.131 µM | GI50 [46] 0.016 µM | GI50 [47] 0.117 µM | GI50 [48] 0.0815 µM | GI50 [49] 0.192 µM | GI50 [50] 0.0357 µM | GI50 [51] 0.333 µM | GI50 [53] 0.117 µM | GI50 [54] 0.238 µM | GI50 [55] 0.029 µM | GI50 [56] < 0.0186 µM | GI50 [57] 0.107 µM
0.107 µM: TGI [15]
inactive: GI50 [2] 0.487 µM | GI50 [18] 0.51 µM | GI50 [52] 0.527 µM
1.6 µM: TGI [39]
0.152 µM: TGI [20]
2.05 µM: TGI [13]
0.21 µM: TGI [19]
> 54.9 µM: TGI [37]
20.4 µM: TGI [11]
0.904 µM: TGI [8]
0.31 µM: TGI [28]
3.5 µM: TGI [12]
9.41 µM: TGI [53]
0.399 µM: TGI [16]
46.7 µM: TGI [47]
0.247 µM: TGI [25]
> 44 µM: TGI [14]
1.13 µM: TGI [38]
15.3 µM: TGI [10]
0.0651 µM: TGI [46]
> 65.4 µM: TGI [5]
2.21 µM: TGI [27]
> 54.2 µM: TGI [45]
0.319 µM: TGI [33]
> 25.3 µM: TGI [30]
> 84.9 µM: TGI [41]
13.2 µM: TGI [17]
> 68.4 µM: TGI [18]
0.542 µM: TGI [31]
38.4 µM: TGI [48]
> 100 µM: TGI [1] | TGI [2] | TGI [24] | TGI [32] | TGI [43] | TGI [49] | TGI [52] | TGI [55]
> 47.7 µM: TGI [44]
> 24.5 µM: TGI [35]
12 µM: TGI [9]
0.518 µM: TGI [57]
0.443 µM: TGI [36]
0.268 µM: TGI [42]
